Measurements from patent US20250228756A1, “Anhydrous Urea Emulsions with a Retinoid Agent” (Baek Clinical Inc., priority 2021, published 2025).
Read-outs that look alike come from different tables or passages of the source.

Assays:
skin [1] = conditions: cited from earlier work
[2] = Assessment of formulation components: solubility in non-aqueous solvents; assay type: physicochemical
Method: A series of experiments were performed to assess and optimize the components of the subject formulations. AA refers to L-ascorbic acid. U refers to urea. % values are wt %.
Additional ingredients were chosen for their compatibility with (e.g., miscibility in) 1,3 propanediol, 1,2 propanediol, and 1,3 butanediol.

[3] = in most solvents; cited from earlier work
skin [4] = conditions: concentrations of 0.2%; clinical data from SEPPIC; cited from earlier work

For `CC(C)(CO)[C@@H](O)C(=O)NCCCO` [Panthenol], the “concentration at which inhibition of transepidermal water loss is apparent” value (skin [1]) is listed as ≥ 1%.

In the case of `COc1cc(CC(C(C)=O)C(C)=O)ccc1O` [Acetyl zingerone], the solubility ([2]; in 1,3 propanediol, 1,2 propanediol and 1,3 butanediol at the desired concentrations (0.5-1%)) is reported as “readily soluble”.

For `CC1(C)[C@@H](O[C@H]2O[C@H](C(=O)O)[C@@H](O)[C@H](O)[C@H]2O[C@@H]2O[C@H](C(=O)O)[C@@H](O)[C@H](O)[C@H]2O)CC[C@]2(C)[C@H]3C(=O)C=C4[C@@H]5C[C@@](C)(C(=O)O)CC[C@]5(C)CC[C@@]4(C)[C@]3(C)CC[C@@H]12` [glycyrrhizic acid, Glycyrrhizic acid], the solubility ([2]; in 1,3-propanediol) was “shows solubility”.

For `NC(N)=O` [urea], the “ability of solvent to solubilize urea” value ([2]; solvent 1,2-hexanediol) was “moderate”, the “ability of solvent to solubilize urea” value ([2]; solvent 1,2-propanediol (propylene glycol)) was “moderate” and the “ability of solvent to solubilize urea” value ([2]; solvent 1,3-butanediol (butylene glycol)) was “moderate”. For the same compound, the “ability of solvent to solubilize urea” value ([2]; solvent 1,3-propanediol) was “moderate”, the “ability of solvent to solubilize urea” value ([2]; solvent 1,5-pentanediol, otherwise referred to as pentylene glycol) was “moderate” and the “ability of solvent to solubilize urea” value ([2]; solvent dimethyl isosorbide) was “very limited”. For the same compound, the “ability of solvent to solubilize urea” value ([2]; solvents glycerin and diglycerin) was “moderate”.

For `O=C(O)CCCCCCCC(=O)O` [AzA, Azelaic acid, reference compound], the solubility [3] is given as “very poorly soluble”, the “change of solubility by the presence of hydroxyethyl urea” value ([2]; in 1,3 propanediol) is given as “slightly increased” and the “concentration that can be solubilized” value ([2]; in 1,3 propanediol) is given as “up to 10%”. For the same compound, the “concentration that is possible to solubilize” value ([2]; with 10% AA, 5% U in a 1,3 propanediol base) was 7.5%.

In the case of Madecassoside, the solubility ([2]; at a concentration of 0.2% in 1,3 propanediol, 1,2 propanediol and 1,3 butanediol) is listed as “soluble” and the “ability to reduce erythema (skin redness)” value (skin [4]) is listed as “desirable ability to reduce erythema”.
